Reference: PMC9945734 (BMC Medicine, 2023)
Where two headings read alike, the source gives them in different places.

Legend:
PC-3-KQ cells = test: 3D spheroid invasion assay and screening of FDA-approved drugs; assay type: cell-based, human; details: Homo sapiens; for activity at 0.01 µM / activity at 0.1 µM / activity at 1 µM / activity at 10 µM: 72 h, compared to vehicle control, read-out: Invasion rates (%) of each drug’s multiple concentrations
Outline: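 Cells were clustered into spheroids by centrifugation and grown 3 days, then embedded in matrigel-medium containing drug on day 4 and cultured another 3 days. Drugs were screened at 10 μM first, then at 0–10 μM, in duplicate wells. Invasion area is total area minus core sphere area from phase-contrast images.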

[1] = system: PC-3-KLF5, PC-3-KQ, DU 145-KLF5 and DU 145-KQ cell spheroids; test: 3D spheroid invasion assay, KLF5^K369Q- versus KLF5-expressing cells; assay type: cell-based, human; details: 0-10 μM
Protocol: The invasion assay was performed as previously described. Briefly, PC-3-KQ cells at 80-90% confluency were plated onto 384-well round bottom plates with ultra-low attachment (Cat #: 4516, Corning) at 500 cells per well in 80 μL medium. The plates were then centrifuged at 320 g for 4 min to cluster cells in the bottom of wells and incubated for 3 days. On the fourth day, 40 μL medium was removed from each well, 40 μL of the matrigel-medium mixture was added to each well, and cells were cultured for another 3 days. The matrigel (Cat #: 354234, Corning) was from Corning, and the medium contained 1% FBS. At the end of the incubation, images were taken using a phase contrast microscope (Eclipse Ti2, Nikon, Tokyo, Japan) with 10× object lenses, and the total area of cells and the core sphere area of cells (Fig. 1a) were measured using the Image J software. The invading area was calculated using the following formula: invasion area = total area of cells – core sphere area.
Figure S2. The effect of NTZ on acetylated (KQ) and non-mutated KLF5 cell invasion. (a) The effect of NTZ on the invasion of PC-3-KLF5, PC-3-KQ, DU 145-KLF5 and DU 145-KQ cell spheroids at different concentrations (0-10 μM) and quantitative analysis (b). *, p < 0.05; ***, p < 0.001.

[2] = system: osteoclasts in mouse femurs; test: TRAP staining of bone tissue sections; assay type: in vivo, Balb/c nude mice; details: compared to the vehicle group
Protocol: The procedure for TRAP staining in tissues was described in our previous study. Briefly, deparaffinized and hydrated bone sections were incubated in 0.2 M acetic acid for 20 min and then in 0.2 M acetic acid containing the fast red TR salt (1.1 mg/mL) and naphthol AS-MX phosphate (0.5 mg/mL) for about 45 min at 37°C. When TRAP-positive cells turn red, as monitored using microscopy, slides were counterstained with hematoxylin and mounted with coverslips using glycerin. Slides were then scanned and analyzed as described above.

RAW264.7 cells [3] = test: Osteoclast differentiation with conditioned medium from NTZ-treated PC-3-KQ cells; assay type: cell-based; details: CM from PC-3-KQ cells treated at 2.5 or 5 μM for 36 h; RANKL 10 ng/mL; 7 days
Protocol: In the second in vitro assay, we used conditioned medium (CM) from NTZ-treated Ac-KLF5-expressing cells. PC-3-KQ cells were seeded in 6-well plates at 1 × 10^5 cells per well and cultured overnight. […] Subsequently, the conditioned media (CM) was collected from each group, centrifugated, filtered, aliquoted, and stored at -80°C for further use or used immediately in the co-cultured experiments. […] RAW264.7 cells in 96-well plates with 24-h culture were incubated with the CM-containing medium for 7 days, with the medium replaced every 2 days. The TRAP staining assay was performed to determine the number of differentiated osteoclasts according to the manufacturer's instructions.

RAW264.7 cells [4] = test: CCK-8 cell viability assay; assay type: cell-based; details: concentrations smaller than 25 μM; 48 h
Protocol: According to the manufacturer's instructions, cell viability was measured using a kit from Beyotime Biotechnology. Briefly, cells were seeded onto 96-well plates at 5 × 10^3 cells per well, incubated overnight, and then treated for 48 h with drugs at 0, 0.02, 0.05, 0.14, 0.41, 1.23, 3.7, 11.1, 33.3, and 100 μM. […] At the end of drug treatment, the medium was removed, the CCK-8 solution was added into each well at 100 μL/well and incubated for 1.5 h at 37°C, and the optical density (OD) was measured at 450 nm using a microplate reader (BioTek).

MYBL2 = MYBL2 expression by qRT-PCR and western blotting; assay type: cell-based, human; details: PC-3 and DU 145 cells expressing KLF5^K369Q; dose- or time-dependent
Protocol: Total RNA was extracted from cells using the Eastep Super total RNA extraction kit (Cat #: LS1040, Promega, Shanghai, China) and quantified using the NanoDrop One (Thermo Fisher Scientific, Madison, USA). Single-strand cDNA was synthesized from 1 μg of total RNA using the HiScript III All-in-one RT SuperMix kit (Cat #: R333-01, Vazyme, Nanjing, China). For qRT-PCR, the cDNA template was mixed with the SYBR Green reagent in enzyme-free water, and the Qtower3 touch system (Analytik Jena, Jena, Germany) was used for PCR with the following program: initial denaturation at 95°C for 5 min, 40 cycles of 95°C for 30 s, 60°C for 30 s, and 72 °C for 30 s, and a final melting for 15 s. GAPDH was used as an internal control. […].
Cells in 6-well plates were washed with cold PBS and collected in a lysis buffer containing phosphatase and protease inhibitors (Cat #: P1045, Beyotime) to extract proteins. After centrifugation for 10 min at 4°C in a refrigerated centrifuge, the supernatant was collected and mixed with the 4× loading buffer, boiled in a metal heat bath at 100°C for 10 min, and then subjected to 10% SDS-PAGE. Proteins were transferred onto an activated PVDF membrane (0.45 μm pore-size, Cat #: IPVH00010, Millipore, Carrigtwohill, Ireland). […]

[5] = secondary screening of 87 hit compounds (Table S1)
[6] = third screening of 25 hit compounds (Table S2)

SMILES: CC(=O)Oc1ccccc1C(=O)Nc1ncc([N+](=O)[O-])s1 [Nitazoxanide]
- activity at 0.01 µM (PC-3-KQ cells; 0.01 μM (first column so headed), secondary screening of 87 hit compounds (Table S1)): 79.3%
- activity at 0.01 µM (PC-3-KQ cells; 0.01 μM (first column so headed), third screening of 25 hit compounds (Table S2)): 94.1%
- activity at 0.01 µM (PC-3-KQ cells; 0.01 μM (second column so headed), secondary screening of 87 hit compounds (Table S1)): 79.5%
- activity at 0.01 µM (PC-3-KQ cells; 0.01 μM (second column so headed), third screening of 25 hit compounds (Table S2)): 94.3%
- activity at 0.1 µM (PC-3-KQ cells; [5]): 45.6%
- activity at 0.1 µM (PC-3-KQ cells; [6]): 44%
- activity at 1 µM (PC-3-KQ cells; [5]): 4.45%
- activity at 1 µM (PC-3-KQ cells; [6]): 6.41%
- activity at 10 µM (PC-3-KQ cells; [5]): 3.4%
- activity at 10 µM (PC-3-KQ cells; [6]): 1.24%
- inhibition at 0.1 µM (PC-3-KQ cells; at 0.1 μM, read-out: inhibition of cell invasion): > 50%
- invasion inhibition in KLF5^K369Q- versus KLF5-expressing cells [1]: more potent in invasion inhibition
- number of TRAP^+ cells in mouse femurs [2]: significantly reduced the number of TRAP^+ cells
- number of TRAP^+ multinucleated cells (RAW264.7 cells [3]): significantly reduced
- cytotoxicity (cell viability) (RAW264.7 cells [4]): did not exhibit detectable cytotoxicity
- expression of MYBL2 (mRNA and protein) (MYBL2): reduced the expression of MYBL2
